The values that follow come from BindingDB's records for doi:10.1016/j.bmc.2018.05.045 (University of Arizona, 2018).

SMILES strings stand for the structures. Where a SMILES comes first, the peptide text is derived from it.

Assay [1] deals with T1, Kappa-type opioid receptor (Homo sapiens, UniProt P41145). As to the kind of experiment: Agonist activity at KOR (unknown origin) expressed in HEK cells assessed as reduction in cAMP accumulation by split luciferase assay. For orientation: Cyclic AMP is a second messenger, typically raised through Gs and lowered through Gi signalling.
T1 sequence (P41145 whole entry): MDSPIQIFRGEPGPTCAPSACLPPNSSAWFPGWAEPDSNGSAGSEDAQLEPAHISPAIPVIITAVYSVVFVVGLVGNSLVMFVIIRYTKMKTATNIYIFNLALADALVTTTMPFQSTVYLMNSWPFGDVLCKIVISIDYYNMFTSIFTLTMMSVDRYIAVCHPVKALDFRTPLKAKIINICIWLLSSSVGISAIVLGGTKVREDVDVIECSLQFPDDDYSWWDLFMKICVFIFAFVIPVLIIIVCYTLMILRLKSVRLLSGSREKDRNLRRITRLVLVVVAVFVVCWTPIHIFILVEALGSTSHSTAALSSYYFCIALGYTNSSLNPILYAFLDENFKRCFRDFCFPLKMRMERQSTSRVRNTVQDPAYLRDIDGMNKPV
For assay [2], the target named is T1, Kappa-type opioid receptor. As to the kind of experiment: Displacement of [3H]U69593 from KOR (unknown origin) expressed in HEK cells.

As for `CC1(C)SSC(C)(C)[C@H](NC(=O)[C@@H](N)Cc2ccc(O)cc2)C(=O)NCC(=O)N[C@@H](Cc2ccccc2)C(=O)N2CCN(CC2)C(=O)[C@H](Cc2ccccc2)NC(=O)CNC(=O)[C@H]1NC(=O)[C@@H](N)Cc1ccc(O)cc1` (HELM PEPTIDE1{Y.[Pen].G.F}|PEPTIDE2{Y.[Pen].G.F}|CHEM1{[C1CN([*:2])CCN1[*:1]]}$PEPTIDE1,PEPTIDE2,2:R3-2:R3|PEPTIDE1,CHEM1,4:R2-1:R1|PEPTIDE2,CHEM1,4:R2-1:R2$$$V2.0), the EC50 – broadly, the concentration giving half of the maximal effect – in assay [1] stood at 269 nM. In addition, the Ki (commonly the equilibrium dissociation constant of an inhibitor or competing ligand from its target) in assay [2] came out at 5.6 nM.
